Results published in the supplement of paper PMC8617591.

Columns and labels:
[1] = test system: Mycobacterium tuberculosis Erdman (autoluminescent); experiment: Einf, fitted maximum growth inhibition (fraction); higher = stronger maximal inhibition
Description: (§1)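 DiaMOND dose responses (10 doses, 1.5- or 2-fold spacing, equipotent around IC90) of autoluminescent M. tuberculosis Erdman in 8 in vitro models. Read-out is OD600, or luminescence for the intracellular (J774) and dormancy models, background-subtracted and normalised to untreated wells. A 3-parameter Hill fit gives Einf and AUC25 (area to IC25 normalised by IC25); GRinf comes from a Hill fit of the Hafner normalised growth rate. Biological replicates passing QC are averaged. Single drugs only.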

[2] = test system: Mycobacterium tuberculosis Erdman (autoluminescent); experiment: AUC25, normalised area under dose response up to IC25 (fraction (0-1)); higher = more potent at low dose
Description: as §1

[3] = test system: Mycobacterium tuberculosis Erdman (autoluminescent); experiment: GRinf, maximum normalised growth rate inhibition (unitless (-1 to 1)); higher = less effect (negative = killing)
Description: as §1

O=[N+]([O-])c1cn2c(n1)OC[C@@H](OCc1ccc(OC(F)(F)F)cc1)C2 [pretomanid]
Settings	AUC25, [2]	Einf, [1]	GRinf, [3]
in vitro model: acidic pH 5.7, time point: constant (~7 days, model-specific)	0.109	0.891	-0.472
in vitro model: acidic pH 5.7, time point: terminal (~4-5 doublings, model-specific)	0.0605	0.983	-0.294
in vitro model: intracellular J774, time point: constant = terminal	–	1	-0.539

Settings	AUC25, [2]	Einf, [1]	GRinf, [3]
in vitro model: butyrate, time point: constant (~7 days, model-specific)	0.0902	0.949	-0.111
in vitro model: butyrate, time point: terminal (~4-5 doublings, model-specific)	0.0573	0.98	-0.114
in vitro model: cholesterol 0.05 mM, time point: constant (~7 days, model-specific)	0.122	0.741	-0.205
in vitro model: cholesterol 0.05 mM, time point: terminal (~4-5 doublings, model-specific)	0.0841	0.927	-0.0295
in vitro model: cholesterol-high 0.2 mM, time point: constant (~7 days, model-specific)	0.0644	0.888	-0.269
in vitro model: cholesterol-high 0.2 mM, time point: terminal (~4-5 doublings, model-specific)	0.044	0.943	-0.393
in vitro model: dormancy (butyrate + nitrate, low O2), time point: constant (~7 days, model-specific)	0.0707	0.914	0.272
in vitro model: dormancy (butyrate + nitrate, low O2), time point: terminal (~4-5 doublings, model-specific)	0.0458	0.994	-0.0972
in vitro model: standard 7H9 glycerol, time point: constant = terminal	0.0636	0.939	-0.0451
in vitro model: valerate, time point: constant (~7 days, model-specific)	0.136	0.948	-0.0946
in vitro model: valerate, time point: terminal (~4-5 doublings, model-specific)	0.0896	0.96	-0.00421

CO[C@H]1/C=C/O[C@@]2(C)Oc3c(C)c(O)c4c(O)c(c(/C=N/N5CCN(C6CCCC6)CC5)c(O)c4c3C2=O)NC(=O)/C(C)=C\C=C\[C@H](C)[C@H](O)[C@@H](C)[C@@H](O)[C@@H](C)[C@H](OC(C)=O)[C@@H]1C [rifapentine]
Settings	AUC25, [2]	Einf, [1]	GRinf, [3]
in vitro model: acidic pH 5.7, time point: constant (~7 days, model-specific)	0.0584	0.831	-0.0781
in vitro model: acidic pH 5.7, time point: terminal (~4-5 doublings, model-specific)	0.0625	0.974	-0.181
in vitro model: intracellular J774, time point: constant = terminal	–	0.973	-0.197

Settings	AUC25, [2]	Einf, [1]	GRinf, [3]
in vitro model: butyrate, time point: constant (~7 days, model-specific)	0.0929	0.891	0.117
in vitro model: butyrate, time point: terminal (~4-5 doublings, model-specific)	0.0749	0.942	0.0762
in vitro model: cholesterol 0.05 mM, time point: constant (~7 days, model-specific)	0.104	0.553	0.164
in vitro model: cholesterol 0.05 mM, time point: terminal (~4-5 doublings, model-specific)	0.065	0.861	-0.00856
in vitro model: cholesterol-high 0.2 mM, time point: constant (~7 days, model-specific)	0.0607	0.877	-0.186
in vitro model: cholesterol-high 0.2 mM, time point: terminal (~4-5 doublings, model-specific)	0.053	1	-0.735
in vitro model: dormancy (butyrate + nitrate, low O2), time point: constant (~7 days, model-specific)	0.0644	0.908	0.218
in vitro model: dormancy (butyrate + nitrate, low O2), time point: terminal (~4-5 doublings, model-specific)	0.0566	0.989	-0.11
in vitro model: standard 7H9 glycerol, time point: constant = terminal	0.0489	0.894	0.0516
in vitro model: valerate, time point: constant (~7 days, model-specific)	0.0524	0.855	0.056
in vitro model: valerate, time point: terminal (~4-5 doublings, model-specific)	0.0266	0.937	0.0374

COc1c(N2C[C@@H]3CCCN[C@@H]3C2)c(F)cc2c(=O)c(C(=O)O)cn(C3CC3)c12 [moxifloxacin]
Settings	AUC25, [2]	Einf, [1]	GRinf, [3]
in vitro model: acidic pH 5.7, time point: constant (~7 days, model-specific)	0.122	0.749	-0.192
in vitro model: acidic pH 5.7, time point: terminal (~4-5 doublings, model-specific)	0.0782	0.96	-0.226
in vitro model: intracellular J774, time point: constant = terminal	–	0.957	-0.212

Settings	AUC25, [2]	Einf, [1]	GRinf, [3]
in vitro model: butyrate, time point: constant (~7 days, model-specific)	0.0832	0.908	0.0408
in vitro model: butyrate, time point: terminal (~4-5 doublings, model-specific)	0.0522	0.957	0.0197
in vitro model: cholesterol 0.05 mM, time point: constant (~7 days, model-specific)	0.116	0.629	-0.0568
in vitro model: cholesterol 0.05 mM, time point: terminal (~4-5 doublings, model-specific)	0.0909	0.881	-0.0841
in vitro model: cholesterol-high 0.2 mM, time point: constant (~7 days, model-specific)	0.0781	0.824	-0.195
in vitro model: cholesterol-high 0.2 mM, time point: terminal (~4-5 doublings, model-specific)	0.0751	1	-0.609
in vitro model: dormancy (butyrate + nitrate, low O2), time point: constant (~7 days, model-specific)	0.0904	0.927	0.0805
in vitro model: dormancy (butyrate + nitrate, low O2), time point: terminal (~4-5 doublings, model-specific)	0.0579	0.974	-0.132
in vitro model: standard 7H9 glycerol, time point: constant = terminal	0.0856	0.913	0.00369
in vitro model: valerate, time point: constant (~7 days, model-specific)	0.105	0.878	-0.00227
in vitro model: valerate, time point: terminal (~4-5 doublings, model-specific)	0.0529	0.936	0.0339
